{"source": "patent US20240390295A1", "about": "“METHODS FOR TREATING DEPRESSION” (JANSSEN PHARMACEUTICA NV, priority 2020, published 2024)", "system": "adult patients (aged 18-64 years) with TRD", "test": "Severity of recurrent clinician-reported AEs (0 no AE, 1 mild, 2 moderate, 3 severe)", "assay_type": "in vivo, human", "procedure": "Patients were monitored for >90 minutes after ESK administration at each treatment session, after which time they could leave the clinical site at the clinician's discretion. AEs were monitored and reported, and safety assessments, including clinical laboratory tests and physical examinations, were conducted throughout the study. Clinician-reported AEs were categorized as mild, moderate, or severe based on clinical judgement (Table 1).\nThis analysis included any treatment sessions in which patients received ESK (either open-label or blinded). The occurrence and severity of AEs were assessed within the following timeframes: Month 1 (Week 1 and Weeks 2-4), Month 2 (Weeks 5-8), Months 3-6 and Months 6-12. Severity of clinician-reported AEs were scored as 0 (no AE), 1 (mild), 2 (moderate), and 3 (severe). To examine AEs in individual patients over time, only patients who received at least one ESK dose in the following period were included in the analyses of each respective period. Thus, patient data were retained in (i) Week 1 if the patient received ≥1 ESK dose in Weeks 2-4, (ii) Weeks 2-4 if the patient received ≥1 ESK dose in Weeks 5-8, (iii) Weeks 5-8 if the patient received ≥1 ESK dose in Months 3-6, and (iv) Months 3-6 if the patient received ≥1 ESK dose in Months 6-12.\nWeek 1 and Week 4 were set a priori as index weeks because they are the beginning and end of the induction period. Frequencies and maximum-reported severities of AEs reported during these index weeks served as stratifying variables by which to examine recurrence and severities of AE recurrences in future timeframes.", "data": [{"smiles": "CN[C@]1(c2ccccc2Cl)CCCCC1=O", "note": "[esketamine, (S)-2-(2-chlorophenyl)-2-(methylamino)cyclohexanone]", "values": [{"measurement": "clinician-reported dissociation mean recurrence severity score", "setting": "AE moderate in Week 1, Months 3-6", "result": 1.4}, {"measurement": "clinician-reported dissociation mean recurrence severity score", "setting": "AE moderate in Week 1, Months 6-12", "result": 1.5}, {"measurement": "clinician-reported dissociation mean recurrence severity score", "setting": "AE moderate in Week 1, Weeks 2-4", "result": 1.5}, {"measurement": "clinician-reported dissociation mean recurrence severity score", "setting": "AE moderate in Week 1, Weeks 5-8", "result": 1.3}, {"measurement": "clinician-reported dissociation mean recurrence severity score", "setting": "AE severe in Week 1, Months 3-6", "result": 1.2}, {"measurement": "clinician-reported dissociation mean recurrence severity score", "setting": "AE severe in Week 1, Months 6-12", "result": 1.6}, {"measurement": "clinician-reported dissociation mean recurrence severity score", "setting": "AE severe in Week 1, Weeks 2-4", "result": 1.5}, {"measurement": "clinician-reported dissociation mean recurrence severity score", "setting": "AE severe in Week 1, Weeks 5-8", "result": 1.8}, {"measurement": "patients with a severe recurrence", "setting": "all clinician-reported AEs except dissociation, any observation period following Week 1 or 4", "result": "< 5", "unit": "patients"}, {"measurement": "patients with a moderate recurrence", "setting": "clinician-reported AEs except dissociation, dizziness, vertigo and nausea, any observation period", "result": "< 10", "unit": "patients"}, {"measurement": "reported severity of dissociation, dizziness, nausea, sedation, vertigo, increased blood pressure", "setting": "initial incidence and recurrence", "result": "mostly mild and rarely severe"}, {"measurement": "clinician-reported dissociation mean recurrence severity score", "setting": "no dissociation in Week 1, all timeframes", "result": 1.3}, {"measurement": "severity of recurrences", "setting": "regardless of highest severity in Weeks 1 or 4", "result": "mild to moderate"}]}]}
